# Values quoted from earlier work in patent publication US7575866B2, “Ligand/binding partner bio-labeling systems” (priority 2003, dated 2009).
# Columns and labels:
# [1] = target: T1, Mycobacterium avium DHFR (Mycobacterium avium, UniProt O30463)
# T1 sequence (O30463 1-181): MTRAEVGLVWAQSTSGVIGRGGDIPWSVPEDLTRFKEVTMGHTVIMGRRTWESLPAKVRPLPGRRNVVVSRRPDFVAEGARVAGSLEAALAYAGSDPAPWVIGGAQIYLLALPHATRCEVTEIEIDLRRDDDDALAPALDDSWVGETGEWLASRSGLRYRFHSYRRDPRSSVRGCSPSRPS
# [2] = system: human cells
# [3] = system: human leukocytes
# [4] = system: DHFR
compound,measurement,setting,value
"2,4-diamino-5-[(2-methoxy-4-carboxybutyloxy)benzyl]pyrimidine",selective binding to Mycobacterium avium DHFR,[1],selectively bind
"CN(Cc1cnc2nc(N)nc(N)c2n1)c1ccc(C(=O)N[C@@H](CCC(=O)O)C(=O)O)cc1 [MTX, Methotrexate]",extracellular concentration at which DNA damage has been observed,[2],10 µM
same,concentration at which toxicity observed,[3],2 µM
CCCCc1c(CN(C)c2ccc(C(=O)N[C@@H](CCC(=O)O)C(=O)O)cc2)cnc2nc(N)nc(N)c12 [5-butyl-5-deazamethotrexate],inhibitory effect on DHFR lowered relative to MTX,[4],17 fold
